Assay results published in patent publication US8618154B2, “LXR modulators” (Bristol-Myers Squibb Company, priority 2009, dated 2013).

Target: T1, LXRα (Homo sapiens, UniProt Q13133)
T1 construct: Co-transfection expression plasmids, comprising full-length LXRα (pCMX-h LXRα); expressed in transfected cells; host or cells: CV-1 African green monkey kidney cells, transient transfection with FuGENE6
T1 sequence (Q13133 1-447): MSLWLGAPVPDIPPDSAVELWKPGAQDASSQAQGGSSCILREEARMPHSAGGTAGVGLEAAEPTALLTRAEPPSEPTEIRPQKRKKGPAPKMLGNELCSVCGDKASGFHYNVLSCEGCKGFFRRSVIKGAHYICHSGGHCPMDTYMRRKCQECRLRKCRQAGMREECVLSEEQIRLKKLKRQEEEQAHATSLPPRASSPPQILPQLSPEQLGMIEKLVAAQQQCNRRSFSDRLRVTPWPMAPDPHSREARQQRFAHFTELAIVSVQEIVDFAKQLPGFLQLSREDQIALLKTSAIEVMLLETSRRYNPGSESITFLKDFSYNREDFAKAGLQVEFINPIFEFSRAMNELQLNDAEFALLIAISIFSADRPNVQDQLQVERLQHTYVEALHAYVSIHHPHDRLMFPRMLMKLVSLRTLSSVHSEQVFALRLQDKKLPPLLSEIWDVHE
T1 sequence (P19793 1-462 partner): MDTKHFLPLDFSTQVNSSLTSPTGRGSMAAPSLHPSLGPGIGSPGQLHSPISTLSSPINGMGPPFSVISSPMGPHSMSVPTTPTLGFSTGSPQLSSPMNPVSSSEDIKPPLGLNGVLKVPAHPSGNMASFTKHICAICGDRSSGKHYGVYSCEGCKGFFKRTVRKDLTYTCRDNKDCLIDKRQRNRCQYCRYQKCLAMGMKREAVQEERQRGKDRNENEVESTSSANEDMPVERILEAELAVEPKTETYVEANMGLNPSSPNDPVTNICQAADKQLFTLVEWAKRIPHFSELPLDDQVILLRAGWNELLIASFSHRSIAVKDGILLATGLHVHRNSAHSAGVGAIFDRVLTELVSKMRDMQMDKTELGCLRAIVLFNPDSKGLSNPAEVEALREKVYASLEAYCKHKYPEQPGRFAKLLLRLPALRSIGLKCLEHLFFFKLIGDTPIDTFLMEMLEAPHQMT
Test: LXR/LXRE co-transfection assay (LXRα)
Type: cell-based
Settings: for EC50: CV-1 cells, LXRE luciferase reporter; for Emax: efficacy relative to high control N-(3-((4-fluorophenyl)-(naphthalene-2-sulfonyl)amino)propyl)-2,2-dimethylpropionamide, read-out: LXRα Eff (%)
Excerpt: To measure the ability of compounds to activate or inhibit the transcriptional activity of LXR in a cell based assay, the co-transfection assay was used. It has been shown that LXR functions as a heterodimer with RXR. For the co-transfection assay, expression plasmids for LXRα and LXRβ are introduced separately via transient transfection into mammalian cells along with a luciferase reporter plasmid that contains one copy of a DNA sequence that is bound by LXR-RXR heterodimers (LXRE; Willy, P. et. al. 1995). LXRs heterodimerize with the endogenous RXR. Treatment of transfected cells with an LXR agonist increases the transcriptional activity of LXR, which is measured by an increase in luciferase activity.
Co-transfection expression plasmids, comprising full-length LXRα (pCMX-h LXRα or LXRβ (pCMX-hLXRβ), reporter plasmid (LXREx1-Tk-Luciferase), and control (pCMX-Galactosidase expression vector) (Willey et al. Genes & Development 9 1033-1045 (1995)).
CV-1 cells were prepared 24 hours prior to the experiment by plating them into T-175 flasks or 500 cm^2 dishes in order to achieve 70-80% confluency on the day of the transfection. The number of cells to be transfected was determined by the number of plates to be screened. Each well of a 384 well plate requires ˜8000 cells. DNA Transfection Reagent was prepared by mixing the required plasmid DNAs with a cationic lipid transfection reagent FuGENE6 (Roche) by following the instructions provided with the reagents. Optimal DNA amounts were determined empirically per cell line and size of vessel to be transfected. For each T175 cm^2 flask a total of 20 μg of DNA, 60 μl of Fugene 6 and 1 ml of Optimem was mixed and added. Cells were then incubated at least 5 hours at 37° C. to prepare screening cells.
Assay plates were prepared by dispensing 5 μL, of compound per well of a 384 well plate to achieve final compound concentration of 10 μM and no more than 0.5% DMSO. Media was removed from the screening cells, the cells trypsinized, harvested cells by centrifugation, counted, and plated at a density of approximately 8000 cells per well in the 384 well assay plate prepared above in a volume of about 45 μL. Assay plates containing both compounds and screening cells (50 μL, in total volume) were incubated for 20 hours at 37° C.
After incubation with compounds, media was removed from the cells and luciferase assay reagent (30 μL/well) added. After ˜2 minutes at ambient temperature, the assay plates were read on a luminometer (PE Biosystems Northstar reader with on-board injectors, or equivalent).
The LXR/LXRE co-transfection assay can be used to establish the EC50/IC50 values for potency and percent activity or inhibition for efficacy. Efficacy defines the activity of a compound relative to a high control ((N-(3-((4-fluorophenyl)-(naphthalene-2-sulfonyl)amino)propyl)-2,2-dimethylpropionamide)) or a low control (DMSO/vehicle). The dose response curves are generated from a 10 point curve with concentrations differing by ½ LOG units.
The data from this assay is fitted to the following equation, from which the EC50 value may be solved: Y=Bottom+(Top−Bottom)/(1+10^((logEC50-X)*HillSlope)).
The EC50/IC50 is therefore defined as the concentration at which an agonist or antagonist elicits a response that is half way between the Top (maximum) and Bottom (baseline) values. The EC50/IC50 values represented are the averages of at least 2 and normally 3 independent experiments. The determination of the relative efficacy or % control for an agonist is by comparison to the maximum response achieved by ((N-(3-((4-fluorophenyl)-(naphthalene-2-sulfonyl)-amino)propyl)-2,2-dimethylpropionamide) that is measured individually in each dose response experiment.

Compound `CC(C)(O)c1cn(-c2ccc(-c3cccc(S(C)(=O)=O)c3)cc2)c(C(C)(C)c2ccccc2Cl)n1` [Compound No. 19, Table 1, WO 2007/002563, reference compound] has an EC50 of 101 to 1000 nM and an Emax of 38%.

Compound `CC(C)(O)c1cn(-c2ccc(-c3cc(F)c(CO)c(S(C)(=O)=O)c3)cc2)c(C(C)(C)c2ccccc2F)n1` [Example 1, 2-(1-(3′-fluoro-4′-(hydroxymethyl)-5′-(methylsulfonyl)biphenyl-4-yl)-2-(2-(2-fluorophenyl)propan-2-yl)-1H-imidazol-4-yl)propan-2-ol] has an EC50 of 101 to 1000 nM and an Emax of 13%.

With `Cc1cc(-c2cc(F)c(CO)c(S(C)(=O)=O)c2)ccc1-n1cc(C(C)(C)O)nc1C(C)(C)c1c(F)cccc1Cl` [Example 2, 2-(2-(2-(2-chloro-6-fluorophenyl)propan-2-yl)-1-(3′-fluoro-4′-(hydroxymethyl)-3-methyl-5′-(methylsulfonyl)biphenyl-4-yl)-1H-imidazol-4-yl)propan-2-ol] the EC50 was < 100 nM and the Emax was 10%.

`CC(C)(O)c1cn(-c2ccc(-c3cc(F)c(CO)c(S(C)(=O)=O)c3)cc2Cl)c(C(C)(C)c2c(Cl)cccc2Cl)n1` [Example 3, 2-(1-(3-chloro-3′-fluoro-4′-(hydroxymethyl)-5′-(methylsulfonyl)biphenyl-4-yl)-2-(2-(2,6-dichlorophenyl)propan-2-yl)-1H-imidazol-4-yl)propan-2-ol] was tested, and the EC50 was < 100 nM and the Emax was 6%.

Compound `CC(C)(O)c1cn(-c2ccc(-c3cc(F)c(CO)c(S(C)(=O)=O)c3)cc2)c(C(C)(C)c2cccc(F)c2Cl)n1` [Example 4, 2-(2-(2-(2-chloro-3-fluorophenyl)propan-2-yl)-1-(3′-fluoro-4′-(hydroxymethyl)-5′-(methylsulfonyl)biphenyl-4-yl)-1H-imidazol-4-yl)propan-2-ol] has an Emax of 12%.

`CC(C)(O)c1cn(-c2ccc(-c3cc(F)c(CO)c(S(C)(=O)=O)c3)cc2)c(C(C)(C)c2c(Cl)cccc2Cl)n1` [Example 5, 2-(2-(2-(2,6-dichlorophenyl)propan-2-yl)-1-(3′-fluoro-4′-(hydroxymethyl)-5′-(methylsulfonyl)biphenyl-4-yl)-1H-imidazol-4-yl)propan-2-ol] was tested, and the EC50 was < 100 nM and the Emax was 25%.

`CC(C)(O)c1cn(-c2ccc(-c3cc(F)c(CO)c(S(C)(=O)=O)c3)cc2F)c(C(C)(C)c2ccccc2Cl)n1` [Example 6, 2-(2-(2-(2-Chloro-phenyl)propan-2-yl)-1-(3,3′-difluoro-4′-hydroxymethyl-5′-(methylsulfonyl)biphenyl-4-yl)-1H-imidazol-4-yl)-propan-2-ol] was tested, and the EC50 was < 100 nM and the Emax was 25%.

With `CC(C)(O)c1cn(-c2ccc(-c3cc(F)c(CO)c(S(C)(=O)=O)c3)cc2F)c(C(C)(C)c2c(F)cccc2Cl)n1` [Example 7, 2-(2-(2-(2-chloro-6-fluorophenyl)propan-2-yl)-1-(3,3′-difluoro-4′-(hydroxymethyl)-5′-(methylsulfonyl)biphenyl-4-yl)-1H-imidazol-4-yl)propan-2-ol] the EC50 was < 100 nM and the Emax was 15%.

For `CC(C)(O)c1cn(-c2ccc(-c3cc(F)c(CO)c(S(C)(=O)=O)c3)cc2F)c(C(C)(C)c2ccccc2F)n1` [Example 8, 2-{1-(3,3′-Difluoro-4′-hydroxymethyl-5′-methanesulfonyl-biphenyl-4-yl)-2-[2-(2-fluorophenyl)propan-2-yl]-1H-imidazol-4-yl}-propan-2-ol], the EC50 was < 100 nM and the Emax was 10%.

`CC(C)(O)c1cn(-c2ccc(-c3cc(F)c(CO)c(S(C)(=O)=O)c3)cc2F)c(C(C)(C)c2c(Cl)cccc2Cl)n1` [Example 9, 2-(2-(2-(2,6-dichlorophenyl)propan-2-yl)-1-(3,3′-difluoro-4′-(hydroxymethyl)-5′-(methylsulfonyl)biphenyl-4-yl)-1H-imidazol-4-yl)propan-2-ol] was tested, and the Emax was 20%.

In the case of `CC(C)(O)c1cn(-c2ccc(-c3cc(F)c(CO)c(S(C)(=O)=O)c3)cc2F)c(Cc2ccc(Cl)cc2Cl)n1` [Example 11, 2-(2-(2,4-dichlorobenzyl)-1-(3,3′-difluoro-4′-(hydroxymethyl)-5′-(methylsulfonyl)biphenyl-4-yl)-1H-imidazol-4-yl)propan-2-ol], the EC50 is reported as > 1000 nM.

`CC(C)(O)c1cn(-c2ccc(-c3cc(F)c(CO)c(S(C)(=O)=O)c3)cc2F)c(Cc2ccccc2C(F)(F)F)n1` [Example 12, 2-(1-(3,3′-difluoro-4′-(hydroxymethyl)-5′-(methylsulfonyl)biphenyl-4-yl)-2-(2-(trifluoromethyl)benzyl)-1H-imidazol-4-yl)propan-2-ol] was tested, and the EC50 was < 100 nM and the Emax was 13%.

`CC(C)(O)c1cn(-c2ccc(-c3cc(F)c(CO)c(S(C)(=O)=O)c3)cc2Cl)c(Cc2ccc(F)cc2Cl)n1` [Example 13, 2-(1-(3-chloro-3′-fluoro-4′-(hydroxymethyl)-5′-(methylsulfonyl)biphenyl-4-yl)-2-(2-chloro-4-fluorobenzyl)-1H-imidazol-4-yl)propan-2-ol] was tested, and the EC50 was < 100 nM and the Emax was 18%.

In the case of `CC(C)(O)c1cn(-c2ccc(-c3cc(F)c(CO)c(S(C)(=O)=O)c3)cc2F)c(Cc2ccc(F)cc2Cl)n1` [Example 14, 2-(2-(2-chloro-4-fluorobenzyl)-1-(3,3′-difluoro-4′-(hydroxymethyl)-5′-(methylsulfonyl)biphenyl-4-yl)-1H-imidazol-4-yl)propan-2-ol], the EC50 is reported as < 100 nM and the Emax is reported as 15%.

In the case of `CC(C)(O)c1cn(-c2ccc(-c3cc(F)c(CO)c(S(C)(=O)=O)c3)cc2)c(Cc2ccc(Cl)cc2Cl)n1` [Example 15, 2-(2-(2,4-dichlorobenzyl)-1-(3′-fluoro-4′-(hydroxymethyl)-5′-(methylsulfonyl)biphenyl-4-yl)-1H-imidazol-4-yl)propan-2-ol], the EC50 is reported as < 100 nM and the Emax is reported as 8%.

With `CC(C)(O)c1cn(-c2ccc(-c3cc(F)c(CO)c(S(C)(=O)=O)c3)cc2F)c(Cc2ccccc2F)n1` [Example 16, 2-(1-(3,3′-difluoro-4′-(hydroxymethyl)-5′-(methylsulfonyl)biphenyl-4-yl)-2-(2-fluorobenzyl)-1H-imidazol-4-yl)propan-2-ol] the EC50 was < 100 nM and the Emax was 19%.
